Source: patent US8765755B2, “N-containing heterocyclic compounds” (YM Biosciences Australia Pty Ltd, priority 2007, dated 2014)

Key:
[1] = molecular target: T1, human JAK3 (Homo sapiens, UniProt P52333); experiment: JAK3 kinase enzyme assay (Alphascreen); type: biochemical; conditions: 80 or 625 um ATP
T1 construct: The kinase domain of human JAK3 was amplified; GST (N); made in house; host or cells: Sf9 (Spodoptera frugiperda) insect cells, baculovirus
Summary of the method: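 Sf9-expressed GST-tagged human JAK3 kinase domain was pre-incubated 20 min with compound at 5 μM final in HEPES pH 7.5 buffer. Then 60 or 90 min reaction with 80 or 625 μM ATP and biotinylated peptide substrate at 111 or 133 μM. AlphaScreen phosphotyrosine acceptor and streptavidin donor beads, 2–3 h.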

[2] = system: BafT_J3; experiment: Cellular screening, BaF3 TEL:JAK3 cells (Alamar Blue); type: cell-based; conditions: Mus musculus, 40 hr incubation
Summary of the method: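 Growth-factor-independent BaF3 tet-off cells express a TEL(nt 1–487)/JAK3 kinase-domain fusion and are grown without WEHI 3B medium. Compound plates were prepared at 20 μM and added as 10× final. After 40 h at 37 °C, 5% CO2, Alamar Blue was added for 4–6 h and read at 544 nm.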

[3] = system: BAF3wt; experiment: Cellular screening, BaF3 wild-type cells (Alamar Blue); type: cell-based; conditions: Mus musculus, 40 hr incubation
Summary of the method: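 BaF3 wild-type cells grown in DMEM with 10% FCS and 10% WEHI 3B conditioned medium, incubated with compound for 40 h at 37 °C, 5% CO2. Viability read by Alamar Blue after a further 4-6 h, at 544 nm; screening concentration 20 μM in dilution plate.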

[4] = molecular target: T2, human JAK1 (Homo sapiens, UniProt P23458); experiment: JAK1 kinase enzyme assay (Alphascreen); type: biochemical; conditions: 80 or 625 um ATP
T2 construct: The kinase domain of human JAK1 was amplified; GST (N); made in house; host or cells: Sf9 (Spodoptera frugiperda) insect cells, baculovirus
T2 sequence (P23458 875-1153 limits assumed): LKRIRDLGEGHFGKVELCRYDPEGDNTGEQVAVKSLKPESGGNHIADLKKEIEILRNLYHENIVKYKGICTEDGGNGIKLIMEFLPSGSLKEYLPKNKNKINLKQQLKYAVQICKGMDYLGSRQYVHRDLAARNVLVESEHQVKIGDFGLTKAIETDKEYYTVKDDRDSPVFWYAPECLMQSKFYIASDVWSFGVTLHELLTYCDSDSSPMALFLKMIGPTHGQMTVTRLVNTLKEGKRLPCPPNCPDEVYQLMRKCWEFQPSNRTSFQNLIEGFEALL
Protocol: For screening purposes, compounds (in 100% DMSO) were warmed at 37 degrees for at least 20 minutes before use. A […] stock was initially made in assay buffer, where the final concentration of DMSO was 0.3%. The stocks were then diluted in 384 well Optiplates (Packard) where the final concentration of the compound was 5 μM.
The kinase domain of human JAK1 was amplified from U937mRNA using the polymerase chain reaction with the following primers: […]
The JAK1 PCR products were cloned into the pDest20 destination vector (Gibco). The JAK1 plasmid was then transformed into competent DH10Bac cells (Gibco), and the recombinant baculovirus was prepared via Sf9 insect cell transfection.
Baculovirus preparations from each of the JAK family members were infected into one litre of Sf9 (Spodoptera frugiperda) cells (Invitrogen) grown in SF900II serum free medium (Invitrogen) to a cell density of approximately 2×10^6 cells/ml. Cells were infected with virus at a cell culture to virus stock ratio of 20:1. Cells were harvested and lysed 48 hours post infection. The GST-tagged JAK kinase domains were purified by affinity chromatography on a GSH agarose column (Scientifix).
Kinase assays were performed in 384 well Optiplates (Packard) using an Alphascreen Protein Tyrosine KinaseP100 detection kit The compounds were pre-incubated with affinity purified PTK domain in the presence of phosphotyrosine assay buffer (10 mM HEPES, pH 7.5, 100 mM MgCl2, 25 mM NaCl, 200 mM sodium vanadate and 0.1% Tween 20) for 20 minutes. The compounds were then incubated with substrate in the presence of either 80 or 625 um ATP for 60 or 90 minutes. The substrate used was either susbtrate-1 with the sequence biotin-EGPWLEEEEEAYGWMDF-NH2 [SEQ. ID. NO. 13] (final concentration 111 μM) or susbtrate-2 substrate with the sequence biotin-EQEDEPEGDYFEWLEPE (final concentration 133 μM). Alphascreen phosphotyrosine acceptor beads followed by streptavidin donor beads at a concentration of 1/100 in stop buffer were added to each well under subdued light and incubated for 2-3 hours. The Alphascreen plates were read on a Packard Fusion Alpha instrument.

[5] = system: BafT_J2; experiment: Cellular screening, BaF3 TEL:JAK2 cells (Alamar Blue); type: cell-based; conditions: Mus musculus, 40 hr incubation
Summary of the method: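 BaF3 cells expressing a TEL–JAK2 kinase-domain fusion, growth-factor independent, were exposed to compounds for 40 hr at 37° C, 5% CO2. Screening concentration was 20 μM in the dilution plate, added as 10× final. Viability read with Alamar Blue after a further 4-6 h, at 544 nm.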

[6] = molecular target: T3, human JAK2 (Homo sapiens, UniProt O60674); experiment: JAK2 kinase enzyme assay (Alphascreen); type: biochemical; conditions: 80 or 625 um ATP
T3 construct: The kinase domain of human JAK2 was amplified; GST (N); made in house; host or cells: Sf9 (Spodoptera frugiperda) insect cells, baculovirus
T3 sequence (O60674 849-1124 limits assumed): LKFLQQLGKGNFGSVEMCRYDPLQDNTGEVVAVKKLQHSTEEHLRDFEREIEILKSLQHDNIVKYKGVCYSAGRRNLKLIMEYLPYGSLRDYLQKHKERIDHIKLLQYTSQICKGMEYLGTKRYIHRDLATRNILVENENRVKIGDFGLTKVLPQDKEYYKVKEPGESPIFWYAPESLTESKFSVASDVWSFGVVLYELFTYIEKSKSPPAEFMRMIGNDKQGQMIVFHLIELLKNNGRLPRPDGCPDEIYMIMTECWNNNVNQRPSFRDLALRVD
Summary of the method: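 Compounds at 5 μM final were pre-incubated 20 min with Sf9-expressed GST-JAK2 kinase domain in HEPES pH 7.5 phosphotyrosine buffer, then incubated 60 or 90 min with 80 or 625 um ATP. Substrate was biotinylated peptide 1 (111 μM final) or peptide 2 (133 μM final). Phosphotyrosine was detected by AlphaScreen acceptor/streptavidin donor beads after 2–3 h.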

[7] = system: CTLL2; experiment: Cellular screening, CTLL2 cells (Alamar Blue); type: cell-based; conditions: Mus musculus, CTLL-2, 40 hr incubation
Summary of the method: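 CTLL2 cells in late log phase were incubated with compounds, from screening plates at 20 μM, for 40 hr at 37° C, 5% CO2. Viability was read by Alamar Blue, added for a further 4-6 hours, with the read at 544 nm.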

T1 sequence (P52333 822-1111 limits assumed): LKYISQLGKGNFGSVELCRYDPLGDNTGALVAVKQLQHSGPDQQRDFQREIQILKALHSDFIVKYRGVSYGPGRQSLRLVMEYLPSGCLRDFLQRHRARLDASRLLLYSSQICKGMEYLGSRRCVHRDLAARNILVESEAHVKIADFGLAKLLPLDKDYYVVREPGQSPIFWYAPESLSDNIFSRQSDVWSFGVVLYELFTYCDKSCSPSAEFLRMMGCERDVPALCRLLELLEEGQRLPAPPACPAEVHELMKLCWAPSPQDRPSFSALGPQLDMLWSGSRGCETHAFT

Row | SMILES | IC50 [1] [nM] | IC50 [2] [nM] | IC50 [3] [nM] | IC50 [4] [nM] | IC50 [5] [nM] | IC50 [6] [nM] | IC50 [7] [nM] | IC50 ([2]; given as number) [nM] | IC50 ([3]; given as number) [nM] | IC50 ([7]; given as number) [nM]
1 | NS(=O)(=O)c1ccc(-c2csc3cnc(Nc4ccc(N5CCOCC5)cc4)nc23)cc1 [Compound 11, 4-(2-(4-morpholinophenylamino)thieno[3,2-d]pyrimidin-7-yl)benzenesulfonamide] | < 100 | < 5000 | < 5000 | < 100 | < 1000 | < 100 | < 1000 | – | – | –
2 | CCNC(=O)Nc1ccc(-c2csc3cnc(Nc4ccc(N5CCOCC5)cc4)nc23)cc1OC [Compound 13, 1-ethyl-3-(2-methoxy-4-(2-(4-morpholinophenylamino)thieno[3,2-d]pyrimidin-7-yl)phenyl)urea] | < 100 | < 5000 | < 1000 | < 500 | < 1000 | < 100 | < 5000 | – | – | –
3 | CS(=O)(=O)Nc1ccc(-c2csc3cnc(Nc4ccc(N5CCOCC5)cc4)nc23)cc1 [Compound 14, N-(4-(2-(4-morpholinophenylamino)thieno[3,2-d]pyrimidin-7-yl)phenyl)methanesulfonamide] | < 100 | < 1000 | < 1000 | < 100 | < 1000 | < 100 | < 1000 | – | – | –
4 | COc1cc(-c2csc3cnc(Nc4ccc(N5CCOCC5)cc4)nc23)ccc1O [Compound 15, 2-methoxy-4-(2-(4-morpholinophenylamino)thieno[3,2-d]pyrimidin-7-yl)phenol] | < 100 | – | – | < 100 | < 1000 | < 100 | – | > 20000 | > 20000 | > 20000
5 | N#CCC(=O)Nc1cccc(-c2csc3cnc(Nc4ccc(N5CCOCC5)cc4)nc23)c1 [Compound 16, 2-cyano-N-(3-(2-(4-morpholinophenylamino)thieno[3,2-d]pyrimidin-7-yl)phenyl)acetamide] | < 100 | < 1000 | < 1000 | < 100 | < 1000 | < 100 | < 1000 | – | – | –
6 | CS(=O)(=O)Nc1cccc(-c2csc3cnc(Nc4ccc(N5CCOCC5)cc4)nc23)c1 [Compound 18, N-(3-(2-(4-morpholinophenylamino)thieno[3,2-d]pyrimidin-7-yl)phenyl)methanesulfonamide] | < 100 | < 1000 | < 1000 | < 100 | < 1000 | < 100 | < 1000 | – | – | –
7 | CS(=O)(=O)N(CC#N)c1cccc(-c2csc3cnc(Nc4ccc(N5CCOCC5)cc4)nc23)c1 [Compound 31, N-(cyanomethyl)-N-(3-(2-(4-morpholinophenylamino)thieno[3,2-d]pyrimidin-7-yl)phenyl)methanesulfonamide] | < 100 | < 1000 | < 1000 | < 100 | < 1000 | < 100 | < 1000 | – | – | –
8 | Cn1cc(-c2ccc(S(N)(=O)=O)cc2)c2nc(Nc3ccc(N4CCOCC4)cc3)ncc21 [Compound 34, 4-(5-methyl-2-(4-morpholinophenylamino)-5H-pyrrolo[3,2-d]pyrimidin-7-yl)benzenesulfonamide] | < 500 | – | < 20000 | < 100 | < 1000 | < 100 | – | > 20000 | – | > 20000
9 | CC(C)(C)NS(=O)(=O)c1cccc(-c2csc3cnc(Nc4cccc(N5CCOCC5)c4)nc23)c1 [Compound 47, N-tert-butyl-3-(2-(3-morpholinophenylamino)thieno[3,2-d]pyrimidin-7-yl)benzenesulfonamide] | < 500 | < 5000 | < 5000 | < 100 | < 5000 | < 100 | < 5000 | – | – | –
10 | CC(C)(C)NS(=O)(=O)c1cccc(-c2csc3cnc(Nc4cccc(CO)c4)nc23)c1 [Compound 48, N-tert-butyl-3-(2-(3-(hydroxymethyl)phenylamino)thieno[3,2-d]pyrimidin-7-yl)benzenesulfonamide] | < 500 | < 1000 | < 1000 | < 100 | < 1000 | < 100 | < 1000 | – | – | –
11 | COc1cc(Nc2ncc3scc(-c4cccc(S(=O)(=O)NC(C)(C)C)c4)c3n2)cc(OC)c1OC [Compound 50, N-tert-butyl-3-(2-(3,4,5-trimethoxyphenylamino)thieno[3,2-d]pyrimidin-7-yl)benzenesulfonamide] | < 500 | < 1000 | < 1000 | < 100 | < 1000 | < 100 | < 1000 | – | – | –
12 | COc1ccc(Nc2ncc3scc(-c4cccc(S(=O)(=O)NC(C)(C)C)c4)c3n2)cc1OC [Compound 53, N-tert-butyl-3-(2-(3,4-dimethoxyphenylamino)thieno[3,2-d]pyrimidin-7-yl)benzenesulfonamide] | < 500 | < 1000 | < 1000 | < 100 | < 1000 | < 100 | < 5000 | – | – | –
